Results reported in the NIST ThermoML archive (doi:10.1021/je300631s).
Numbers after ± are expanded uncertainties.

Experiments:
[1] = for surface tension liquid-gas: Maximal bubble pressure; for mass density: 101.33 kPa, Vibrating tube method
[2] = refractive index (Na D-line) (dimensionless); conditions: 298.15 K; 101.33 kPa; Liquid; Standard Abbe refractometry
[3] = xn = mol fraction of the nth substance listed; conditions: 298.15 K, 101 kPa, Liquid, Vibrating tube method

For `Cc1ccc(C)o1` [2,5-dimethylfuran], the surface tension liquid-gas ([1]; 293.15 K) was 25.42 ± 0.27 mN/m, the mass density ([1]; 293.15 K, Liquid) was 901.18 ± 0.08 kg/m3 and the mass density ([1]; 298.15 K, Liquid) was 895.7 ± 0.08 kg/m3. The surface tension liquid-gas ([1]; 303.15 K) was 24.04 ± 0.26 mN/m, the mass density ([1]; 303.15 K, Liquid) was 890.37 ± 0.08 kg/m3 and the surface tension liquid-gas ([1]; 313.15 K) was 22.73 ± 0.26 mN/m. The mass density ([1]; 313.15 K, Liquid) was 879.43 ± 0.08 kg/m3, the surface tension liquid-gas ([1]; 323.15 K) was 21.41 ± 0.26 mN/m and the mass density ([1]; 323.15 K, Liquid) was 868.36 ± 0.09 kg/m3. The “vapor or sublimation pressure” value ([1]; 331.46 K, Liquid, Ebulliometric method (Recirculating still)) was 30.01 ± 0.08 kPa, the surface tension liquid-gas ([1]; 333.15 K) was 20.22 ± 0.25 mN/m and the mass density ([1]; 333.15 K, Liquid) was 857.1 ± 0.09 kg/m3. The “vapor or sublimation pressure” value ([1]; 335.51 K, Liquid, Ebulliometric method (Recirculating still)) was 35.01 ± 0.08 kPa, the “vapor or sublimation pressure” value ([1]; 339.09 K, Liquid, Ebulliometric method (Recirculating still)) was 40.01 ± 0.08 kPa and the “vapor or sublimation pressure” value ([1]; 342.32 K, Liquid, Ebulliometric method (Recirculating still)) was 45.01 ± 0.09 kPa. The surface tension liquid-gas ([1]; 343.15 K) was 19.1 ± 0.25 mN/m, the mass density ([1]; 343.15 K, Liquid) was 845.67 ± 0.1 kg/m3 and the “vapor or sublimation pressure” value ([1]; 345.26 K, Liquid, Ebulliometric method (Recirculating still)) was 50.01 ± 0.09 kPa. The “vapor or sublimation pressure” value ([1]; 348 K, Liquid, Ebulliometric method (Recirculating still)) was 55.01 ± 0.1 kPa, the “vapor or sublimation pressure” value ([1]; 350.53 K, Liquid, Ebulliometric method (Recirculating still)) was 60.01 ± 0.1 kPa and the “vapor or sublimation pressure” value ([1]; 352.9 K, Liquid, Ebulliometric method (Recirculating still)) was 65.01 ± 0.11 kPa. The surface tension liquid-gas ([1]; 353.15 K) was 18.05 ± 0.25 mN/m, the mass density ([1]; 353.15 K, Liquid) was 834.01 ± 0.1 kg/m3 and the “vapor or sublimation pressure” value ([1]; 355.13 K, Liquid, Ebulliometric method (Recirculating still)) was 70.01 ± 0.11 kPa. The “vapor or sublimation pressure” value ([1]; 357.24 K, Liquid, Ebulliometric method (Recirculating still)) was 75.01 ± 0.12 kPa, the surface tension liquid-gas ([1]; 358.15 K) was 17.5 ± 0.25 mN/m and the mass density ([1]; 358.15 K, Liquid) was 828.13 ± 0.1 kg/m3. For the same molecule, the “vapor or sublimation pressure” value ([1]; 359.24 K, Liquid, Ebulliometric method (Recirculating still)) was 80.01 ± 0.12 kPa, the “vapor or sublimation pressure” value ([1]; 361.13 K, Liquid, Ebulliometric method (Recirculating still)) was 85.01 ± 0.12 kPa and the “vapor or sublimation pressure” value ([1]; 362.95 K, Liquid, Ebulliometric method (Recirculating still)) was 90.01 ± 0.13 kPa. For the same molecule, the “vapor or sublimation pressure” value ([1]; 364.69 K, Liquid, Ebulliometric method (Recirculating still)) was 95.01 ± 0.13 kPa, the “vapor or sublimation pressure” value ([1]; 366.79 K, Liquid, Ebulliometric method (Recirculating still)) was 101.33 ± 0.14 kPa and the Normal boiling temperature ([1]; Liquid, Ebulliometric method (Recirculating still)) was 93.68 ± 0.22 °C. The refractive index [2] was 1.4404 ± 0.00031.
For `Cc1ccc(C)o1` [2,5-dimethylfuran] + CCCCCC, the mass density ([3]; x2 = 0) was 895.7 ± 0.72 kg/m3, the mass density ([3]; x2 = 0.058) was 878.43 ± 0.92 kg/m3 and the mass density ([3]; x2 = 0.103) was 865.07 ± 0.9 kg/m3. The mass density ([3]; x2 = 0.169) was 846.48 ± 0.87 kg/m3, the mass density ([3]; x2 = 0.211) was 834.86 ± 0.85 kg/m3 and the mass density ([3]; x2 = 0.284) was 815.33 ± 0.83 kg/m3. For the same molecule, the mass density ([3]; x2 = 0.326) was 804.35 ± 0.81 kg/m3, the mass density ([3]; x2 = 0.373) was 792.42 ± 0.8 kg/m3 and the mass density ([3]; x2 = 0.425) was 779.22 ± 0.78 kg/m3. For the same molecule, the mass density ([3]; x2 = 0.474) was 767.35 ± 0.77 kg/m3, the mass density ([3]; x2 = 0.523) was 755.53 ± 0.75 kg/m3 and the mass density ([3]; x2 = 0.577) was 743.04 ± 0.73 kg/m3. The mass density ([3]; x2 = 0.671) was 722.12 ± 0.71 kg/m3, the mass density ([3]; x2 = 0.73) was 709.38 ± 0.69 kg/m3 and the mass density ([3]; x2 = 0.854) was 683.63 ± 0.67 kg/m3. The mass density ([3]; x2 = 0.915) was 671.56 ± 0.65 kg/m3 and the mass density ([3]; x2 = 0.979) was 659.09 ± 0.64 kg/m3.
With `CCCCCC` [hexane] + Cc1ccc(C)o1 the mass density ([3]; x1 = 1) was 655.17 ± 0.51 kg/m3.
